Test results reported in ChEMBL document CHEMBL1151052, “Semi-synthetic qualestatins: Squalene synthase inhibition and antifungal activity. The SAR of C6 and C7 modifications” (Bioorg Med Chem Lett, 1993).
Converted amounts (≈) assume the structure as drawn.

Columns and labels:
Aspergillus niger = test: Tested for the whole cell antifungal activity against Aspergillus niger 48238 strain; type: functional
Candida albicans = test: Antifungal activity against Candida albicans C316 strain; type: functional
Cryptococcus neoformans = test: Antifungal activity against Cryptococcus neoformans 2867E strain; type: functional
Squalene synthase = target: T1, Squalene synthase (Rattus norvegicus, UniProt Q02769); test: Inhibition of rat liver squalene synthase(SQS)
T1 sequence (Q02769 whole entry): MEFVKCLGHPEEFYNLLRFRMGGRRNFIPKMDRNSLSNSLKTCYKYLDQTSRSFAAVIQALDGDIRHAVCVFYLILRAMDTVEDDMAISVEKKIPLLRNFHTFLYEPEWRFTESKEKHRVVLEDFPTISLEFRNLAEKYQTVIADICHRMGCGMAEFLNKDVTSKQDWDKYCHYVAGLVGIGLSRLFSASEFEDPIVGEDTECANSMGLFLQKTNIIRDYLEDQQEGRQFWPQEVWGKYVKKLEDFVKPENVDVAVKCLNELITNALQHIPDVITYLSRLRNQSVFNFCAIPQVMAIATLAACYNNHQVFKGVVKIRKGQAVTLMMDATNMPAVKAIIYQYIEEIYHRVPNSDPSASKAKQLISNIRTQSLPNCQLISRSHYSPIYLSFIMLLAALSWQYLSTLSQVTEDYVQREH

SMILES	MIC (Aspergillus niger)	MIC (Candida albicans)	MIC (Cryptococcus neoformans)	IC50 (Squalene synthase)
C=C(CC[C@]12O[C@H](C(=O)O)[C@@](O)(C(=O)O)[C@](C(=O)O)(O1)[C@H](OC(=O)OC)[C@H]2O)[C@@H](OC(C)=O)[C@H](C)Cc1ccccc1	> 125 µg/mL	> 125 µg/mL	> 125 µg/mL	3 nM
C=C(CC[C@]12O[C@H](C(=O)O)[C@@](O)(C(=O)O)[C@](C(=O)O)(O1)[C@H](OC(=O)C1CCCCC1)[C@H]2O)[C@@H](OC(C)=O)[C@H](C)Cc1ccccc1	> 62 µg/mL	> 62 µg/mL	31 µg/mL (≈ 47.8 µM)	17 nM
C=C(CC[C@]12O[C@H](C(=O)O)[C@@](O)(C(=O)O)[C@](C(=O)O)(O1)[C@H](OC(C)=O)[C@H]2O)[C@@H](OC(C)=O)[C@H](C)Cc1ccccc1	> 125 µg/mL	> 125 µg/mL	> 125 µg/mL	2 nM
C=C(CC[C@]12O[C@H](C(=O)O)[C@@](O)(C(=O)O)[C@](C(=O)O)(O1)[C@H](OC(=O)/C=C/[C@@H](C)C[C@@H](C)CC)[C@H]2OC(C)=O)[C@@H](OC(C)=O)[C@H](C)Cc1ccccc1	8 µg/mL (≈ 10.9 µM)	> 125 µg/mL	1 µg/mL (≈ 1.36 µM)	10 nM
C=C(CC[C@]12O[C@H](C(=O)O)[C@@](O)(C(=O)O)[C@](C(=O)O)(O1)[C@H](OC(=O)CCCCCCc1ccccc1)[C@H]2O)[C@@H](OC(C)=O)[C@H](C)Cc1ccccc1	62 µg/mL (≈ 85.3 µM)	125 µg/mL (≈ 172 µM)	2 µg/mL (≈ 2.75 µM)	9 nM
C=C(CC[C@]12O[C@H](C(=O)O)[C@@](O)(C(=O)O)[C@](C(=O)O)(O1)[C@H](OC(=O)OCCCC)[C@H]2O)[C@@H](OC(C)=O)[C@H](C)Cc1ccccc1	> 125 µg/mL	> 125 µg/mL	> 125 µg/mL	4 nM
C=C(CC[C@]12O[C@H](C(=O)O)[C@@](O)(C(=O)O)[C@](C(=O)O)(O1)[C@H](OC(=O)CCC)[C@H]2OC(=O)CCC)[C@@H](OC(C)=O)[C@H](C)Cc1ccccc1	> 125 µg/mL	> 125 µg/mL	> 125 µg/mL	–
C=C(CC[C@]12O[C@H](C(=O)O)[C@@](O)(C(=O)O)[C@](C(=O)O)(O1)[C@H](OC(=O)/C=C/c1ccccc1)[C@H]2O)[C@@H](OC(C)=O)[C@H](C)Cc1ccccc1	> 125 µg/mL	> 125 µg/mL	31 µg/mL (≈ 46.4 µM)	4 nM
C=C(CC[C@]12O[C@H](C(=O)O)[C@@](O)(C(=O)O)[C@](C(=O)O)(O1)[C@H](OC(=O)CC1CCCCC1)[C@H]2O)[C@@H](OC(C)=O)[C@H](C)Cc1ccccc1	62 µg/mL (≈ 93.6 µM)	62 µg/mL (≈ 93.6 µM)	2 µg/mL (≈ 3.02 µM)	–
C=C(CC[C@]12O[C@H](C(=O)O)[C@@](O)(C(=O)O)[C@](C(=O)O)(O1)[C@H](O)[C@H]2O)[C@@H](OC(C)=O)[C@H](C)Cc1ccccc1	> 125 µg/mL	> 125 µg/mL	> 125 µg/mL	–
C=C(CC[C@]12O[C@H](C(=O)O)[C@@](O)(C(=O)O)[C@](C(=O)O)(O1)[C@H](OC(=O)CCCCCCC)[C@H]2OC(=O)CCCCCCC)[C@@H](OC(C)=O)[C@H](C)Cc1ccccc1	> 125 µg/mL	> 125 µg/mL	> 125 µg/mL	280 nM
C=C(CC[C@]12O[C@H](C(=O)O)[C@@](O)(C(=O)O)[C@](C(=O)O)(O1)[C@H](OC(=O)c1ccccc1)[C@H]2O)[C@@H](OC(C)=O)[C@H](C)Cc1ccccc1	> 125 µg/mL	> 125 µg/mL	> 125 µg/mL	8 nM
C=C(CC[C@]12O[C@H](C(=O)O)[C@@](O)(C(=O)O)[C@](C(=O)O)(O1)[C@H](OC(=O)/C=C/[C@@H](C)C[C@@H](C)CC)[C@H]2OC(=O)CCCCCCC)[C@@H](OC(C)=O)[C@H](C)Cc1ccccc1	> 32 µg/mL	> 32 µg/mL	> 32 µg/mL	–
C=C(CC[C@]12O[C@H](C(=O)O)[C@@](O)(C(=O)O)[C@](C(=O)O)(O1)[C@H](OC(C)=O)[C@H]2OC(C)=O)[C@@H](OC(C)=O)[C@H](C)Cc1ccccc1	> 125 µg/mL	> 125 µg/mL	–	–
C=C(CC[C@]12O[C@H](C(=O)O)[C@@](O)(C(=O)O)[C@](C(=O)O)(O1)[C@H](OC(=O)/C=C/[C@@H](C)C[C@@H](C)CC)[C@H]2OC(=O)OC)[C@@H](OC(C)=O)[C@H](C)Cc1ccccc1	> 125 µg/mL	125 µg/mL (≈ 167 µM)	> 125 µg/mL	15 nM
C=C(CC[C@]12O[C@H](C(=O)O)[C@@](O)(C(=O)O)[C@](C(=O)O)(O1)[C@H](OC(=O)/C=C/[C@@H](C)C[C@@H](C)CC)[C@H]2O)[C@@H](OC(C)=O)[C@H](C)Cc1ccccc1 [ZARAGOZIC ACIDS A]	16 µg/mL (≈ 23.2 µM)	8 µg/mL (≈ 11.6 µM)	0.5 µg/mL (≈ 0.724 µM)	–

The next lines start with the values.

MIC (Aspergillus niger)	MIC (Candida albicans)	MIC (Cryptococcus neoformans)	IC50 (Squalene synthase)	SMILES
> 125 µg/mL	> 125 µg/mL	> 125 µg/mL	–	C=C(CC[C@]12O[C@H](C(=O)O)[C@@](O)(C(=O)O)[C@](C(=O)O)(O1)[C@H](OC(=O)CCCC)[C@H]2O)[C@@H](OC(C)=O)[C@H](C)Cc1ccccc1
> 125 µg/mL	> 125 µg/mL	> 125 µg/mL	> 500 nM	C=C(CC[C@]12O[C@H](C(=O)O)[C@@](O)(C(=O)O)[C@](C(=O)O)(O1)[C@H](O)[C@H]2OC(=O)CCCCCCC)[C@@H](OC(C)=O)[C@H](C)Cc1ccccc1
8 µg/mL (≈ 12 µM)	31 µg/mL (≈ 46.6 µM)	1 µg/mL (≈ 1.5 µM)	3 nM	C=C(CC[C@]12O[C@H](C(=O)O)[C@@](O)(C(=O)O)[C@](C(=O)O)(O1)[C@H](OC(=O)CCCCCCC)[C@H]2O)[C@@H](OC(C)=O)[C@H](C)Cc1ccccc1
2 µg/mL (≈ 2.89 µM)	16 µg/mL (≈ 23.1 µM)	2 µg/mL (≈ 2.89 µM)	8 nM	C=C(CC[C@]12O[C@H](C(=O)O)[C@@](O)(C(=O)O)[C@](C(=O)O)(O1)[C@H](OC(=O)CCCCCCCCC)[C@H]2O)[C@@H](OC(C)=O)[C@H](C)Cc1ccccc1
> 125 µg/mL	> 125 µg/mL	> 125 µg/mL	303 nM	C=C(CC[C@]12O[C@H](C(=O)O)[C@@](O)(C(=O)O)[C@](C(=O)O)(O1)[C@H](O)[C@H]2OC(=O)CCCCCCCCC)[C@@H](OC(C)=O)[C@H](C)Cc1ccccc1
> 125 µg/mL	> 125 µg/mL	–	–	C=C(CC[C@]12O[C@H](C(=O)O)[C@@](O)(C(=O)O)[C@](C(=O)O)(O1)[C@H](O)[C@H]2OC(C)=O)[C@@H](OC(C)=O)[C@H](C)Cc1ccccc1
0.25 µg/mL (≈ 0.353 µM)	1 µg/mL (≈ 1.41 µM)	0.06 µg/mL (≈ 0.0847 µM)	7 nM	C=C(CC[C@]12O[C@H](C(=O)O)[C@@](O)(C(=O)O)[C@](C(=O)O)(O1)[C@H](OC(=O)OCCCCCCCCC)[C@H]2O)[C@@H](OC(C)=O)[C@H](C)Cc1ccccc1
> 125 µg/mL	> 125 µg/mL	> 125 µg/mL	380 nM	C=C(CC[C@]12O[C@H](C(=O)O)[C@@](O)(C(=O)O)[C@](C(=O)O)(O1)[C@H](O)[C@H]2OC(=O)OC)[C@@H](OC(C)=O)[C@H](C)Cc1ccccc1
